Results reported in patent US12274775B2, “Fatty acid esters as anti-Malassezia agents” (SYMRISE AG, priority 2019, dated 2025).
≈ marks a conversion by molar mass, not a printed value. Read-outs that look alike come from different tables or passages of the source.

Experiments:
M. furfur = test: Agar dilution test on mDixon agar, minimal inhibitory concentration (MIC); assay type: cell-based; settings: for MIC: Malassezia furfur
Description: (§1) The fatty acid esters and their mixtures were tested for growth inhibition against Malassezia. The following reference strains were included:
(§2) Tests were performed on solid media using agar dilution tests. Stock solutions of test substances were prepared in mDixon-Agar (cf. Table 2). Lower test concentrations were obtained by diluting stock solutions with fresh agar.
(§3) Preparation of liquid agar was carried out in temperated water bath. Required amounts of test substances were weighed in 130 ml of Dixon Agar and mixed with fresh Dixon-Agar to reach desired concentrations of test substances. Agar solutions with test substances were then poured into 24 well-plates. The pH value in all assays was maintained at 5.5. Preparation of test substances was done on weight per volume base. All results are expressed in parts per million (1 ppm=0.0001%).
(§4) Briefly, Malassezia strains were cultivated on selective agar for pathogenic fungi (Merck) and overlaid with a thin layer of cold-sterilized olive oil. […] Incubation was carried out at 32° C. over a maximal duration of 14 days with regular inspection and documentation of growth status. Minimal inhibitory concentrations (MICs) were determined as the lowest concentrations of test compound without visible growth. Each experiment was repeated to confirm results.

M. globosa = test: as above; assay type: cell-based; settings: for MIC: Malassezia globosa
Description: as §1, §2, §3, §4

M. pachydermatis = test: as above; assay type: cell-based; settings: for MIC: Malassezia pachydermatis
Description: as §1, §2, §3, §4

M. restricta = test: as above; assay type: cell-based; settings: for MIC: 336 h
Description: as §1, §2, §3, §4

M. sympodialis = test: as above; assay type: cell-based; settings: for MIC: 336 h
Description: as §1, §2, §3, §4

M. globosa CBS 7705 = test: Ester cleavage by Malassezia cells, GC quantification; assay type: cell-based; settings: 32° C.
Description: (§5) These two species are the most frequently detected ones on human scalp and skin and their hydrolytic/lipolytic activities on fatty acid esters has not yet been investigated before.
(§6) Malassezia strains were cultivated on selective agar for pathogenic fungi (Merck) and overlaid with a thin layer of cold-sterilized olive oil. After 3 to 5 days, fungal cells were harvested and resuspended in the respective test substance. Cell numbers were determined using a Neubauer counting chamber (cf. Table 12). Sterile Petri dishes (diameter: 3 cm) were prepared containing selective agar for pathogenic fungi, overlaid with 100 μl of the test suspensions and incubated at 32° C.
(§7) After defined incubation times (0, 3, 6, 12, 24, 48, and 72 h), test suspensions were removed from the agar surface by rinsing with 1 ml chloroform and stored under cool conditions in gastight tubes until analysis. Chloroform was removed by evaporation at 30° C. in the fume hood and the remaining liquid mixed with 1 ml isopropanol, transferred in Eppendorf tubes and centrifuged. The supernatant was transferred to new Eppendorf tubes.
(§8) In order to analytically quantify esters and free fatty acid resulting from cleavage by Malassezia enzymes, gas chromatography was used.
(§9) For quantification (range 0.1-10 wt %) a multilevel calibration method with internal standard (ISTD, docosane [C22]; 500 mg in MtBE) was used. An equal amount of corresponding acid, ester and possible side products [0.2-50 mg/10 mL] were mixed with ISTD, diluted to an appropriate concentration and 1 μL [split1:50] was directly used for GC-analysis with the following conditions: GC Agilent 6890 with a 20 m ZB-Wax column [0.20 mm×0.20 μm], injector temperature of 250° C., detector temperature of 275° C., flow gas of 1.3 mL/min hydrogen [constant]. For temperature profile 60° C. to 240° C. with a heating rate of 9° C./min was used.

M. restricta CBS 7877 = test: as above; assay type: cell-based; settings: 32° C.
Description: as §5, §6, §7, §8, §9

[1] = Ester cleavage assays without Malassezia cells; assay type: physicochemical; settings: until the end of the experiment after 72 hours
Description: as §6, §7, §8
For quantification (range 0.1-10 wt %) a multilevel calibration method with internal standard (ISTD, docosane [C22]; 500 mg in MtBE) was used. […]

[2] = CBS1878, 336 h, M. furfur CBS 1878, agar dilution, pH 5.5, 32° C., up to 14 days, read-out: Minimal inhibitory concentration (MIC)
[3] = CBS7019, 336 h, M. furfur CBS 7019, agar dilution, pH 5.5, 32° C., up to 14 days, read-out: Minimal inhibitory concentration (MIC)
[4] = 336 h, M. globosa PM1, agar dilution, pH 5.5, 32° C., up to 14 days, read-out: Minimal inhibitory concentration (MIC)
[5] = CBS7705, 336 h, M. globosa CBS 7705, agar dilution, pH 5.5, 32° C., up to 14 days, read-out: Minimal inhibitory concentration (MIC)
[6] = CBS7966, 336 h, M. globosa CBS 7966, agar dilution, pH 5.5, 32° C., up to 14 days, read-out: Minimal inhibitory concentration (MIC)
[7] = 336 h, M. pachydermatis 1892, agar dilution, pH 5.5, 32° C., up to 14 days, read-out: Minimal inhibitory concentration (MIC)
[8] = CBS1879, 336 h, M. pachydermatis CBS 1879, agar dilution, pH 5.5, 32° C., up to 14 days, read-out: Minimal inhibitory concentration (MIC)
[9] = M. restricta CBS 7877, agar dilution, pH 5.5, 32° C., up to 14 days, read-out: Minimal inhibitory concentration (MIC)
[10] = pH 5.5, M. sympodialis ATCC 42132, pH 5.5, 32° C., up to 14 days, read-out: Minimal inhibitory concentration (MIC)
[11] = pH 5.5, M. sympodialis CBS 7222, pH 5.5, 32° C., up to 14 days, read-out: Minimal inhibitory concentration (MIC)
[12] = pH 5.5, M. sympodialis CBS 7979, pH 5.5, 32° C., up to 14 days, read-out: Minimal inhibitory concentration (MIC)
[13] = pH 5.5, M. sympodialis DSM 6171, pH 5.5, 32° C., up to 14 days, read-out: Minimal inhibitory concentration (MIC)
[14] = M. globosa CBS 7705, after 6 hours
[15] = M. globosa CBS 7705, after 12 hours
[16] = M. restricta CBS 7877, after 6 hours
[17] = M. restricta CBS 7877, after 12 hours
[18] = 336 h, pH 5.5, read-out: Minimal inhibitory concentration (MIC)

Compound	MIC (M. furfur; [2]) [µg/mL]	MIC (M. furfur; [3]) [µg/mL]	MIC (M. globosa; [4]) [µg/mL]	MIC (M. globosa; [5]) [µg/mL]	MIC (M. globosa; [6]) [µg/mL]	MIC (M. pachydermatis; [7]) [µg/mL]	MIC (M. pachydermatis; [8]) [µg/mL]	MIC (M. restricta; [9]) [µg/mL]	MIC (M. sympodialis; [10]) [µg/mL]	MIC (M. sympodialis; [11]) [µg/mL]	MIC (M. sympodialis; [12]) [µg/mL]	MIC (M. sympodialis; [13]) [µg/mL]	also measured
CCCCCCCC(=O)OCCCO [3-Hydroxypropyl caprylate]	2000 (≈ 9.89 mM)	2000 (≈ 9.89 mM)	500 (≈ 2.47 mM)	1000 (≈ 4.94 mM)	1000 (≈ 4.94 mM)	500 (≈ 2.47 mM)	330 (≈ 1.63 mM)	1000 (≈ 4.94 mM)	1000 (≈ 4.94 mM)	1000 (≈ 4.94 mM)	2000 (≈ 9.89 mM)	2000 (≈ 9.89 mM)	ester cleaved (M. globosa CBS 7705; [14]): 75%; ester cleaved (M. globosa CBS 7705; [15]): 90%; ester cleaved (M. restricta CBS 7877; [16]): 21%; ester cleaved (M. restricta CBS 7877; [17]): 65%; free fatty acid detected in assays without Malassezia cells [1]: no caprylic acid was detected
C=CCCCCCCCCC(=O)OCCCO [3-Hydroxypropyl undecylenoate]	8000 (≈ 33 mM)	8000 (≈ 33 mM)	2000 (≈ 8.25 mM)	1000 (≈ 4.13 mM)	2000 (≈ 8.25 mM)	1000 (≈ 4.13 mM)	2000 (≈ 8.25 mM)	1000 (≈ 4.13 mM)	2000 (≈ 8.25 mM)	4000 (≈ 16.5 mM)	1000 (≈ 4.13 mM)	2000 (≈ 8.25 mM)	ester cleaved (M. globosa CBS 7705; [14]): 95%; ester cleaved (M. globosa CBS 7705; [15]): 99.5%; ester cleaved (M. restricta CBS 7877; [16]): 56%; ester cleaved (M. restricta CBS 7877; [17]): 96%; free fatty acid detected in assays without Malassezia cells [1]: no undecylenic acid was detected
C=CCCCCCCCCC(=O)OCC [Ethyl undecylenoate]	20000 (≈ 94.2 mM)	> 20000	8000 (≈ 37.7 mM)	4000 (≈ 18.8 mM)	10000 (≈ 47.1 mM)	500 (≈ 2.35 mM)	2000 (≈ 9.42 mM)	1000 (≈ 4.71 mM)	200 (≈ 0.942 mM)	200 (≈ 0.942 mM)	200 (≈ 0.942 mM)	200 (≈ 0.942 mM)	–
CCCCCCCC(=O)OCC(O)CO (stereo not drawn) [Glyceryl monocaprylate]	4000 (≈ 18.3 mM)	4000 (≈ 18.3 mM)	500 to 1000 (≈ 2.29 to 4.58 mM)	1000 (≈ 4.58 mM)	1000 (≈ 4.58 mM)	500 (≈ 2.29 mM)	330 (≈ 1.51 mM)	330 (≈ 1.51 mM)	1000 (≈ 4.58 mM)	1000 (≈ 4.58 mM)	1000 (≈ 4.58 mM)	2000 (≈ 9.16 mM)	–
C=CCCCCCCCCC(=O)OCC(O)CO (stereo not drawn) [Glyceryl monoundecylenoate]	8000 (≈ 31 mM)	8000 (≈ 31 mM)	2000 (≈ 7.74 mM)	1000 (≈ 3.87 mM)	2000 (≈ 7.74 mM)	4000 (≈ 15.5 mM)	8000 (≈ 31 mM)	1000 (≈ 3.87 mM)	500 (≈ 1.94 mM)	500 (≈ 1.94 mM)	500 (≈ 1.94 mM)	200 (≈ 0.774 mM)	–
C=CCCCCCCCCC(=O)O [Undecylenic acid, 10-undecylenic acid]	–	–	–	–	–	–	–	–	–	–	–	–	MIC (M. furfur; CBS1878, 336 h, pH 5.5, read-out: Minimal inhibitory concentration (MIC)): 2000 µg/mL (≈ 10.9 mM); MIC (M. furfur; CBS7019, 336 h, pH 5.5, read-out: Minimal inhibitory concentration (MIC)): > 2000 µg/mL; MIC (M. globosa; [18]): 677 µg/mL (≈ 3.67 mM); MIC (M. globosa; CBS7705, 336 h, pH 5.5, read-out: Minimal inhibitory concentration (MIC)): 330 µg/mL (≈ 1.79 mM); MIC (M. globosa; CBS7966, 336 h, pH 5.5, read-out: Minimal inhibitory concentration (MIC)): 2000 µg/mL (≈ 10.9 mM); MIC (M. pachydermatis; [18]): 500 µg/mL (≈ 2.71 mM); MIC (M. pachydermatis; CBS1879, 336 h, pH 5.5, read-out: Minimal inhibitory concentration (MIC)): 1000 µg/mL (≈ 5.43 mM); MIC (M. restricta; pH 5.5, read-out: Minimal inhibitory concentration (MIC)): 500 µg/mL (≈ 2.71 mM); MIC (M. sympodialis; pH 5.5, read-out: Minimal inhibitory concentration (MIC), M. sympodialis ATCC 42132, pH 5.5, 32° C., up to 14 days): 100 µg/mL (≈ 0.543 mM); MIC (M. sympodialis; pH 5.5, read-out: Minimal inhibitory concentration (MIC), M. sympodialis CBS 7222, pH 5.5, 32° C., up to 14 days): 100 µg/mL (≈ 0.543 mM); MIC (M. sympodialis; pH 5.5, read-out: Minimal inhibitory concentration (MIC), M. sympodialis CBS 7979, pH 5.5, 32° C., up to 14 days): 200 µg/mL (≈ 1.09 mM); MIC (M. sympodialis; pH 5.5, read-out: Minimal inhibitory concentration (MIC), M. sympodialis DSM 6171, pH 5.5, 32° C., up to 14 days): 100 µg/mL (≈ 0.543 mM)
PEG9-caprylate	–	–	–	–	–	–	–	–	–	–	–	–	Minimal inhibitory concentration (MIC) (M. furfur; M. furfur CBS 1878, agar dilution, pH 5.5, 32° C., up to 14 days): 20000 ppm; Minimal inhibitory concentration (MIC) (M. furfur; M. furfur CBS 7019, agar dilution, pH 5.5, 32° C., up to 14 days): 10000 ppm; Minimal inhibitory concentration (MIC) (M. globosa; M. globosa CBS 7966, agar dilution, pH 5.5, 32° C., up to 14 days): 2000 ppm; Minimal inhibitory concentration (MIC) (M. globosa; M. globosa PM1, agar dilution, pH 5.5, 32° C., up to 14 days): 2000 ppm; Minimal inhibitory concentration (MIC) (M. pachydermatis; M. pachydermatis 1892, agar dilution, pH 5.5, 32° C., up to 14 days): 4000 ppm; Minimal inhibitory concentration (MIC) (M. pachydermatis; M. pachydermatis CBS 1879, agar dilution, pH 5.5, 32° C., up to 14 days): 2000 ppm; Minimal inhibitory concentration (MIC) (M. restricta; M. restricta CBS 7877, agar dilution, pH 5.5, 32° C., up to 14 days): 2000 ppm; Minimal inhibitory concentration (MIC) (M. sympodialis; M. sympodialis ATCC 42132, pH 5.5, 32° C., up to 14 days): 10000 ppm; Minimal inhibitory concentration (MIC) (M. sympodialis; M. sympodialis CBS 7222, pH 5.5, 32° C., up to 14 days): 10000 ppm; Minimal inhibitory concentration (MIC) (M. sympodialis; M. sympodialis CBS 7979, pH 5.5, 32° C., up to 14 days): 8000 ppm; Minimal inhibitory concentration (MIC) (M. sympodialis; M. sympodialis DSM 6171, pH 5.5, 32° C., up to 14 days): 8000 ppm
